The values that follow come from patent US6750228B1, “Aromatic sulfone hydroxamic acid metalloprotease inhibitor” (priority 1997, dated 2004).

A word on the IC50: it is the point on the concentration scale where inhibition reaches its midpoint.

Assay in all cases: biochemical
Assay [1] deals with T1, MMP-2 (Homo sapiens, UniProt P08253).
T1 construct: made in house; provided by Dr. Gregory Goldberg, Washington University
T1 sequence (P08253 110-660): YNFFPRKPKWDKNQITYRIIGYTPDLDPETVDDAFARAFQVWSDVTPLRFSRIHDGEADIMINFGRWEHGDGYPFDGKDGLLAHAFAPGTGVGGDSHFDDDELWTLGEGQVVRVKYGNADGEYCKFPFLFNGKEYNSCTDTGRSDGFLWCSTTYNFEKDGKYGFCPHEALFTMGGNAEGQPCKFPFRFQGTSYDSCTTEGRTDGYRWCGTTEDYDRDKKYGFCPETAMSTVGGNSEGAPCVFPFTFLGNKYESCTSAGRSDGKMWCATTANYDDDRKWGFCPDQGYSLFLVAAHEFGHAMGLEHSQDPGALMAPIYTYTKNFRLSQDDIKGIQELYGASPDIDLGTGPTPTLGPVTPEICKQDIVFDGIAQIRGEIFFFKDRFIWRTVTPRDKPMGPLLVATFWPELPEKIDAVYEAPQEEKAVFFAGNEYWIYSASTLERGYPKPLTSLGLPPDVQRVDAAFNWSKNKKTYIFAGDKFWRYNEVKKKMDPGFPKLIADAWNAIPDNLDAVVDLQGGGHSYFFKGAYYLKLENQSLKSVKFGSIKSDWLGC
The note with it: recombinant human MMP-2, MCA peptide substrate 4 μM, pH 7.5, room temperature; read-out: MMP-2 IC50. In a few lines:
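APMA- or trypsin-activated human MMPs (MMP-1 from transfected HT-1080 cells, MMP-2 from transfected cells) preincubated with inhibitor in 1% DMSO at room temperature, then 4 μM MCA-Pro-Leu-Gly-Leu-Dpa-Ala-Arg-NH2 added in Tris/NaCl/CaCl2 buffer pH 7.5. IC50 from fluorescence reduction versus inhibitor concentration.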

Assay [2] has as its target T2, MMP-13 (Homo sapiens, UniProt P45452).
T2 construct: made in house; host or cells: baculovirus / insect cells
The note with it: recombinant human MMP-13, MCA peptide substrate 4 μM, pH 7.5, room temperature; read-out: MMP-13 IC50. The gist of the method:
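APMA- or trypsin-activated enzymes were preincubated with inhibitor for 5 min at room temperature, then the fluorogenic substrate MCA-Pro-Leu-Gly-Leu-Dpa-Ala-Arg-NH2 was added to a final 4 μM.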

Assay [3] concerns the target T3, MMP-1 (Homo sapiens, UniProt P03956).
T3 construct: made in house; host or cells: transfected HT-1080 cells (provided by Dr. Harold Welgus, Washington University)
T3 sequence (P03956 100-469): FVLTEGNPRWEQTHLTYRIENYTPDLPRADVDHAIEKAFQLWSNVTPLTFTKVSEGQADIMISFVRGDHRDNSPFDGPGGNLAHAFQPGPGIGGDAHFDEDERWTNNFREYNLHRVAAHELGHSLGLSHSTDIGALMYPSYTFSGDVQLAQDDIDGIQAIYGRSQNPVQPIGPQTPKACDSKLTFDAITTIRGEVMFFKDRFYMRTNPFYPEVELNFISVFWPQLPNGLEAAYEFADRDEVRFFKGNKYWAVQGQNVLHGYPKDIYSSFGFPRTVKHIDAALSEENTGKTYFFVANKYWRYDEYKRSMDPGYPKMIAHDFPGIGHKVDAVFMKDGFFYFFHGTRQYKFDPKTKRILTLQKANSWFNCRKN
The note with it: recombinant human MMP-1, MCA peptide substrate 4 μM, pH 7.5, room temperature; read-out: MMP-1 IC50. The gist of the method:
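Substrate MCA-PLGL-Dpa-AR-NH2 at 4 μM final; pH 7.5 Tris/NaCl/CaCl2 buffer with 0.05% polyethyleneglycol lauryl ether, 1% DMSO, room temperature. MMP-1 was expressed in transfected HT-1080 cells and APMA-activated.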

For `CN(C)CCN(C)CCCCC(=O)N1CCC(C(=O)NO)(S(=O)(=O)c2ccc(Oc3ccc(C(F)(F)F)cc3)cc2)CC1` [Example 338], the IC50 in assay [1] is 0.2 nM; in assay [2] it was 1.9 nM; in assay [3], > 10000 nM.

Take `CN1CCN(CCCCC(=O)N2CCC(C(=O)NO)(S(=O)(=O)c3ccc(Oc4ccc(C(F)(F)F)cc4)cc3)CC2)CC1` [Example 339]: the IC50 is 0.3 nM in assay [1], 1 nM in assay [2] and > 10000 nM in assay [3].

For `O=C(CCCCNCc1ccncc1)N1CCC(C(=O)NO)(S(=O)(=O)c2ccc(Oc3ccc(C(F)(F)F)cc3)cc2)CC1` [Example 340], the IC50 in assay [1] is < 0.1 nM; in assay [2], 0.3 nM; in assay [3], > 10000 nM.

As to `O=C(CCCCN1CCCC1)N1CCC(C(=O)NO)(S(=O)(=O)c2ccc(Oc3ccc(C(F)(F)F)cc3)cc2)CC1` [Example 341], the half-inhibitory concentration (IC50) is 0.2 nM in assay [1], 0.6 nM in assay [2] and > 10000 nM in assay [3].

Consider `COCCN(CCCCC(=O)N1CCC(C(=O)NO)(S(=O)(=O)c2ccc(Oc3ccc(C(F)(F)F)cc3)cc2)CC1)CCOC` [Example 342], for which the IC50 in assay [1] is 0.3 nM; in assay [2], 4 nM; in assay [3] it was > 10000 nM.

Take `O=C(CCCCN1CCNCC1)N1CCC(C(=O)NO)(S(=O)(=O)c2ccc(Oc3ccc(C(F)(F)F)cc3)cc2)CC1` [Example 343]: the IC50 in assay [1] was 0.8 nM; in assay [2] it was 1.7 nM; in assay [3], > 10000 nM.

On to `CCN(CCCCC(=O)N1CCC(C(=O)NO)(S(=O)(=O)c2ccc(Oc3ccc(C(F)(F)F)cc3)cc2)CC1)Cc1ccncc1` [Example 344], for which the IC50 in assay [1] was 0.65 nM; in assay [2], 2.9 nM; in assay [3] it was > 10000 nM.

Consider `CCCN(CCCCC(=O)N1CCC(C(=O)NO)(S(=O)(=O)c2ccc(Oc3ccc(C(F)(F)F)cc3)cc2)CC1)CC1CC1` [Example 346], for which the figures for the IC50 in assay [1], in assay [2] and in assay [3] were 0.2 nM, 1.2 nM and > 10000 nM, respectively.

Regarding `COCCNCCCCC(=O)N1CCC(C(=O)NO)(S(=O)(=O)c2ccc(Oc3ccc(C(F)(F)F)cc3)cc2)CC1` [Example 347], the IC50 in assay [1] was 0.7 nM; in assay [2], 3 nM; in assay [3], > 10000 nM.

`O=C(NO)C1(S(=O)(=O)c2ccc(Oc3ccc(OC(F)(F)F)cc3)cc2)CCN(Cc2cc(Cl)cc(Cl)c2)CC1` [Example 348]: the half-inhibitory concentration (IC50) in assay [1] was 0.8 nM; in assay [2], 16.5 nM; in assay [3], > 10000 nM.

As for `C#CCN1CCC(C(=O)NO)(S(=O)(=O)c2ccc(Oc3ccc(OC(F)(F)F)cc3)cc2)CC1` [Example 349], the results for the IC50 in assay [1], in assay [2] and in assay [3] were < 0.1 nM, 0.2 nM and 2600 nM, respectively.

Consider `O=C(CCc1cnc[nH]1)N1CCC(C(=O)NO)(S(=O)(=O)c2ccc(Oc3ccc(OC(F)(F)F)cc3)cc2)CC1` [Example 350], for which the IC50 in assay [1] was < 0.1 nM; in assay [2] it was 0.1 nM; in assay [3] it was 6000 nM.

Consider `O=C(NO)C1(S(=O)(=O)c2ccc(Oc3ccc(OC(F)(F)F)cc3)cc2)CCN(c2ccccn2)CC1` [Example 352], for which the IC50 was 0.3 nM in assay [1], 1.4 nM in assay [2] and > 10000 nM in assay [3].

For `COc1cccc(NC(=O)N2CCC(C(=O)NO)(S(=O)(=O)c3ccc(Oc4ccc(OC(F)(F)F)cc4)cc3)CC2)c1` [Example 353], the IC50 in assay [1] was < 0.1 nM; in assay [2], 0.3 nM; in assay [3], > 10000 nM.

With `O=C(Nc1c(Cl)cccc1Cl)N1CCC(C(=O)NO)(S(=O)(=O)c2ccc(Oc3ccc(OC(F)(F)F)cc3)cc2)CC1` [Example 355], the IC50 was < 0.1 nM in assay [1], 0.4 nM in assay [2] and 7000 nM in assay [3].

Turning to `COc1ccccc1NC(=O)N1CCC(C(=O)NO)(S(=O)(=O)c2ccc(Oc3ccc(OC(F)(F)F)cc3)cc2)CC1` [Example 357], the figures for the IC50 in assay [1], in assay [2] and in assay [3] were 0.1 nM, 0.3 nM and > 10000 nM, respectively.
